# Values of other authors as cited in patent US20050065175A1 (Xanodyne Pharmacal, Inc., priority 2003, published 2005).
# Counter-ions that a name gives are not always drawn.
# Key:
# [1] = orally administered tablets, absorption through GI tract
# [2] = water and ethanol
Compound,time until methadone can be detected in blood plasma after ingestion [1] [min],bioavailability of oral transmucosal methadone (oral cavity fluid pH between about 7 and about 10),oral bioavailability of methadone (oral cavity pH about 8 to about 9) [%],bioavailability via the oral transmucosal route (pH about 6.5 to about 6.9 (normal saliva)),bioavailability via the oral mucosa (pH of about 8.5),portion of the orally bioavailable methadone in the bloodstream (within the first 2.5 minutes of delivery to the mucosal tissue),solubility [2]
CCC(=O)C(CC(C)N(C)C)(c1ccccc1)c1ccccc1 (stereo not shown) [methadone],≤ 30,50-75%,≤ 75,about 34%,about 75%,50-70%,–
CCC(=O)C(CC(C)N(C)C)(c1ccccc1)c1ccccc1 (stereo not shown) [Methadone hydrochloride],–,–,–,–,–,–,soluble in water and ethanol
